Results: publication PMC6188138, “Carnosol suppresses patient-derived gastric tumor growth by targeting RSK2” (Oncotarget, 2018)

Target: T1, RSK2 (Homo sapiens, UniProt P51812)
T1 construct: gene RPS6KA3
Test: in vitro kinase assay with recombinant active RSK2 and ATF1 substrate (Western blot); supported by pull-down of recombinant RSK2 with carnosol-Sepharose 4B beads
Assay type: biochemical

T1 sequence (P51812 whole entry): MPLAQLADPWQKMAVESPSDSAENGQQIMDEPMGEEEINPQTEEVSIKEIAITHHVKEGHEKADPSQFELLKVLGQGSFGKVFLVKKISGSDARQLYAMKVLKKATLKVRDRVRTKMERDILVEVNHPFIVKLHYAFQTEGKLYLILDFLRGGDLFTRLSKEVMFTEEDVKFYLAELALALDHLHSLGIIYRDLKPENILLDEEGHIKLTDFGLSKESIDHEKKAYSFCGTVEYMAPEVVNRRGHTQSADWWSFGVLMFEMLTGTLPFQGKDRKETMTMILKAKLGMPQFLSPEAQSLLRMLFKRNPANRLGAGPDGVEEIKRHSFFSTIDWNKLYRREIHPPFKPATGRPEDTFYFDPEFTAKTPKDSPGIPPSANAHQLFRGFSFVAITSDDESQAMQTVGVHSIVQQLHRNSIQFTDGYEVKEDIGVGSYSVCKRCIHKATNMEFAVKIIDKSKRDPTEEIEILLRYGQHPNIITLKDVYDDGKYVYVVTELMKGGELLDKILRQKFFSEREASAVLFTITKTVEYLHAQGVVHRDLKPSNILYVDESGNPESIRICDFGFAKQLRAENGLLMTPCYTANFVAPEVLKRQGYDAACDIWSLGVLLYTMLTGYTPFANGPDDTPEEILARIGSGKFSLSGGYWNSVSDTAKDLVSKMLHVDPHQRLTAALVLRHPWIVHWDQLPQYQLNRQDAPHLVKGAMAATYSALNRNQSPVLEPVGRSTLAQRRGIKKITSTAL

An IC50 of roughly 5.5 µM was found for CC(C)c1cc2c(c(O)c1O)[C@@]13CCCC(C)(C)[C@@H]1C[C@@H]2OC3=O [Carnosol] in this work.
